Article PMC5774622 (Biochimie, 2017)
Ends that are not written are not given here.

Tests used:
[1] = tested on: TFEB nuclear translocation; details: cited from earlier work
[2] = target: purified recombinant CN (Rattus norvegicus, UniProt P63100+P63329); experiment: Fluorescence polarization
[3] = tested on: interaction between GST-CNA and GFP-TFEB; experiment: GST pull-down of GFP-TFEB by GST-CNA; type: binding; details: quercetin 50 μM and 100 μM; GFP-TFEB transfected in HeLa cells
[4] = target: PVIVIT peptide; details: cited from earlier work
[5] = target: NFAT PRIEIT peptide (Homo sapiens); details: cited from earlier work
[6] = tested on: CN; details: kinetics comparable to intact RII; cited from earlier work
[7] = target: CN (Rattus norvegicus, UniProt P63100+P63329); experiment: CN phosphatase colorimetric assay with RII phosphopeptide as substrate; type: biochemical
[8] = tested on: CNA in mouse brain lysates; experiment: GST pull-down of CNA from mouse brain lysates; type: binding; details: addition of synthetic peptide to pull-down

purified recombinant CN, sequence (P63100 whole entry, other chains not shown): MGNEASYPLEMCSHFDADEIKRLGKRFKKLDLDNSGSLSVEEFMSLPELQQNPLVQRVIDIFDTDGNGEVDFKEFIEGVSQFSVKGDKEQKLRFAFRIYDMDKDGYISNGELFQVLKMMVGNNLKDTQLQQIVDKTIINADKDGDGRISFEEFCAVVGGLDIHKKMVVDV

With `C=CC[C@@H]1/C=C(\C)C[C@H](C)C[C@H](OC)[C@H]2O[C@@](O)(C(=O)C(=O)N3CCCC[C@H]3C(=O)O[C@H](/C(C)=C/[C@@H]3CC[C@@H](O)[C@H](OC)C3)[C@H](C)[C@@H](O)CC1=O)[C@H](C)C[C@@H]2OC` [FK506] as the compound, how does the “TFEB nuclear translocation during starvation” value [1] read?
Its value is “reduce TFEB nuclear translocation”.

Which IC50 [2] does the source give for `CC(C)C[C@H](NC(=O)[C@H](Cc1ccc(O)cc1)NC(=O)[C@H](CCC(N)=O)NC(=O)[C@@H](N)CC(=O)O)C(=O)N[C@@H](C)C(=O)N[C@H](C(=O)N1CCC[C@H]1C(=O)N[C@@H](CCC(N)=O)C(=O)N[C@@H](Cc1c[nH]cn1)C(=O)N1CCC[C@H]1C(=O)N[C@@H](Cc1ccc(O)cc1)C(=O)N[C@@H](CCC(N)=O)C(=O)N[C@@H](Cc1c[nH]c2ccccc12)C(=O)N[C@@H](C)C(=O)N[C@@H](CCCCN)C(=O)O)C(C)C` [NFATc1-YLAVP] here?
The IC50 was ~5 µM.

With `O=c1c(O)c(-c2ccc(O)c(O)c2)oc2cc(O)cc(O)c12` [quercetin] as the compound, how does the “effect on interaction between GST-CNA and GFP-TFEB” value [3] read?
Its value is “blocks the interaction”.

Which results are given for Calcineurin (from UniProt Q08209)?
Kd [4]: 0.5 µM; Kd [5]: 25 µM

For “DLDVPIPGRFDRRVpSVAAE [RII phosphopeptide]”, which “Vmax of dephosphorylation by CN” value [6] is on record?
Its value is 1.7 µmol/min/mg.

For ESILLVPPTWPKPLV [NFATc2-ILLVP], which IC50 [7] is on record?
The IC50 was 130 µM.

With GSSHLAPPNPDKQFL [RCAN1-HLAPP] as the compound, how does the IC50 [7] read?
Its IC50 is 131 µM.

For QSYLENPTSYHLQQS [TFEB-YLENP], which “effect on interaction between GST-TFEB-YLENP and CNA” value [8] is on record?
The value was “greatly inhibited”.
